# Test results published in US20060063759A1, “Tricyclic steroid hormone nuclear receptor modulators” (priority 2002, published 2006).
# pKi: −log10 of the molar value.
# What was measured:
# human MR = target: T1, human MR (Homo sapiens, UniProt P08235); test: Mineralocorticoid Receptor Binding Assay ([3H]-aldosterone); conditions: [3H]-aldosterone binding, human MR expressed in Sf9 cells; read-out: MR Ki
# T1 construct: The full length human MR gene is cloned from a human kidney or human brain cDNA library; His tag from the pAcHLT vector (own knowledge); made in house; host or cells: Sf9 insect cells (baculovirus, pAcHLT transfer vector)
# T1 sequence (P08235 1-984): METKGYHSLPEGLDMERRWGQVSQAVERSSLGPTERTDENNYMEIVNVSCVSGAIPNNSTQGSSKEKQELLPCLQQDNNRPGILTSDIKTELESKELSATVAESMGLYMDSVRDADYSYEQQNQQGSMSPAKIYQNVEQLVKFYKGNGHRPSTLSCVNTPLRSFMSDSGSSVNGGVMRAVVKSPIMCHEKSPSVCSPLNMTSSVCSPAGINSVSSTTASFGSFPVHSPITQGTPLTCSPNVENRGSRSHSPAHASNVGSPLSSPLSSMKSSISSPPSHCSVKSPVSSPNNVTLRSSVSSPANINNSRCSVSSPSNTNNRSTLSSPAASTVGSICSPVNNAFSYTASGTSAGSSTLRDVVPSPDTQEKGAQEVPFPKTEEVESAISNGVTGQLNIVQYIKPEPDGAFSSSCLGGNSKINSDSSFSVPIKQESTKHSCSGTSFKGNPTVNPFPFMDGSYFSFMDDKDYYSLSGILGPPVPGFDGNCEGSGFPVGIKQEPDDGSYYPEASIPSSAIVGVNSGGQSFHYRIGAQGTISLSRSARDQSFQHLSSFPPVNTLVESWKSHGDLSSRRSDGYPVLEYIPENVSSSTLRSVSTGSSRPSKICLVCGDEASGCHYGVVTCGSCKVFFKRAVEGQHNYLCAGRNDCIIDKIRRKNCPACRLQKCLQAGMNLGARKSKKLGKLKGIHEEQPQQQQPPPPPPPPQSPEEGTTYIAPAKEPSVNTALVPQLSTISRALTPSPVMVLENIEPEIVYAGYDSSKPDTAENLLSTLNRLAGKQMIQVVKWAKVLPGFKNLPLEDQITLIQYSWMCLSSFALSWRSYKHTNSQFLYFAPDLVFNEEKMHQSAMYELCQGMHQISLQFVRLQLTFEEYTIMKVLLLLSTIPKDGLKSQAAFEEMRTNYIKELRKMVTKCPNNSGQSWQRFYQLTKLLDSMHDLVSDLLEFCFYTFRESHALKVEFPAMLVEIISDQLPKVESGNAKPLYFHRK
# Summary of the method: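 Lysate supernatant of Sf9 cells expressing full-length human MR (20-25 μg protein) was incubated with 0.5 nM [3H]-aldosterone and test compound in molybdate/Tris/phosphate/glycerol buffer, pH 7.5, ~16 h at 4 °C. Bound ligand was filtered and counted by scintillation; IC50 is the concentration halving [3H]-aldosterone binding.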
# glucocorticoid receptor = target: T2, glucocorticoid receptor (Homo sapiens, UniProt P04150); test: Glucocorticoid Receptor Binding Assay ([3H]-dexamethasone, A549 cell extract); conditions: [3H]-dexamethasone binding, read-out: GR Ki
# T2 construct: containing 50-200 ug of A549 cell extract and 1.86 nM [^3H]-dexamethasone; host or cells: A549 human lung epithelial cells (sonicated cell extract)
# T2 sequence (P04150 1-777): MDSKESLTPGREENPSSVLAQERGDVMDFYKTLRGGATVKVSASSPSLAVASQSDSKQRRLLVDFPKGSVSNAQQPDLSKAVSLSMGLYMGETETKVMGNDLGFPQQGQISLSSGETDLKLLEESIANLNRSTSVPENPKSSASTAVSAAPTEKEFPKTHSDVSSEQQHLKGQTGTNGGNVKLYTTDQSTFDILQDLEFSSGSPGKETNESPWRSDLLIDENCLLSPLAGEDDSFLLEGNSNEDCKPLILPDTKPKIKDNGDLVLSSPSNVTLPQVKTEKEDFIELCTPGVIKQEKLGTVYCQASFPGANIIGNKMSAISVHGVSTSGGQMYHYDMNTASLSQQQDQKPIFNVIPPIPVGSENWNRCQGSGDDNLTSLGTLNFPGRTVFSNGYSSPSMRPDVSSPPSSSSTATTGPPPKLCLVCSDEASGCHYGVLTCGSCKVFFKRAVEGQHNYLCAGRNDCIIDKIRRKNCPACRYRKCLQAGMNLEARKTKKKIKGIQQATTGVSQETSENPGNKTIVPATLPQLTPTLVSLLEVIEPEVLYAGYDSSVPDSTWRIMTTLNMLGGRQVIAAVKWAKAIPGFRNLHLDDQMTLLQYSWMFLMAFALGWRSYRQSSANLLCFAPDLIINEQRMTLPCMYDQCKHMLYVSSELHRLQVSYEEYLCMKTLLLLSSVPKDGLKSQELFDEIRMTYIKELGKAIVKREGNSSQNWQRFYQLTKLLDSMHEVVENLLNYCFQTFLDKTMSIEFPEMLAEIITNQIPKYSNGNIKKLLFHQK
# Summary of the method: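 A549 cell extract (50–200 ug) incubated with 1.86 nM [3H]-dexamethasone and test compound for 16 h at 4 °C in Tris-HCl pH 7.2 buffer with glycerol and molybdate. Unbound radioligand removed by dextran-coated charcoal, then supernatant bound counts measured by scintillation.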
pKi (human MR),pKi (glucocorticoid receptor),Structure (SMILES)
> 6.30,> 5.00,"C(=C1c2ccccc2CCc2ccccc21)c1cccc2[nH]ccc12 [Example 220, 4-(10,11-Dihydro-dibenzo[a,d]cyclohepten-5-ylidenemethyl)-1H-indole]"
> 6.30,> 5.00,Cc1ccc2c(c1)CCc1ccccc1/C2=C/c1ccc(NS(C)(=O)=O)cc1 [Example 317]
> 6.30,> 6.30,CS(=O)(=O)Nc1cc(F)cc(/C=C2\c3ccc(F)cc3CCc3nc(C(F)F)ccc32)c1 [Example 595]
> 6.30,> 6.30,C/C(=C1\c2ccccc2COc2cc(OCC3CC3)ccc21)c1cccc(NS(C)(=O)=O)c1 [Example 813]
> 6.30,> 6.30,O=C(Nc1cccc(C=C2c3ccccc3CCc3cc(Cl)ccc32)c1)C(F)(F)F [Example 400]
> 6.30,> 6.30,CS(=O)(=O)Nc1cccc(CC2c3ccccc3CCc3cccnc32)c1 (stereo not drawn) [Example 538]
> 6.30,> 6.00,O=c1[nH]c2cc(/C=C3\c4ccccc4COc4cc(Cl)ccc43)ccc2n1CCN1CCOCC1 [Example 647]
> 6.30,> 6.00,"Cc1cccc(C=C2c3ccccc3CCc3cc(Cl)ccc32)c1 [Example 177, 2-Chloro-5-(3-methyl-benzylidene)-10,11-dihydro-5H-dibenzo[a,d]cycloheptene]"
> 6.30,> 5.00,O=c1[nH]c2ccc(/C=C3/c4ccc(F)cc4CCc4nc(Cl)sc43)cc2[nH]1 [Example 549]
> 6.30,> 6.30,"Oc1cc(F)cc(C=C2c3ccccc3CCc3ccccc32)c1 [Example 155, 3-(10,11-Dihydro-dibenzo[a,d]cyclohepten-5-ylidenemethyl)-5-fluoro-phenol]"
> 6.30,> 6.30,"CS(=O)(=O)Nc1cccc(CC2c3ccccc3CCc3ccc(Cl)cc32)c1 (stereo not drawn) [Example 189, N-[3-(3-Chloro-10,11-dihydro-5H-dibenzo[a,d]cyclohepten-5-ylmethyl)-phenyl]-methanesulfonamide]"
> 6.30,> 6.00,"Cc1ccc(NS(C)(=O)=O)cc1C=C1c2ccccc2CCc2ccccc21 [Example 47, N-[3-(10,11-Dihydro-dibenzo[a,d]cyclohepten-5-ylidenemethyl)-4-methyl-phenyl]-methanesulfonamide]"
> 6.30,> 6.30,COc1ccc(C=C2c3ccccc3CSc3ccccc32)cn1 [Example 688]
> 6.30,> 5.00,CS(=O)(=O)NCc1ccc(/C=C2\c3ccccc3CCc3cc(Cl)ccc32)cc1 [Example 346]
> 6.00,> 6.30,CC(=O)Nc1cccc(/C=C2\c3ccccc3CSc3ccccc32)c1 [Example 691]
> 6.30,> 6.30,O=c1[nH]c2cc(C=C3c4ccc(F)cc4CCc4cc(F)ccc43)ccc2s1 [Example 457]
> 6.30,> 5.00,O=c1[nH]c2ccc(/C=C3\c4ccc(F)cc4CCc4ncsc43)cc2[nH]1 [Example 565]
> 6.00,> 5.00,Clc1ccc(C=C2c3ccccc3CCc3sccc32)c(Cl)c1 [Example 490]
> 6.30,> 6.30,CC/C(=C1\c2ccccc2COc2cc(F)ccc21)c1cccc(NS(C)(=O)=O)c1 [Example 811]
> 6.30,> 5.00,Cc1cccc2c1CCc1ccccc1/C2=C/c1ccc(NS(C)(=O)=O)cc1 [Example 315]
> 6.30,> 6.30,CC/C(=C1\c2ccccc2CCc2cc(C)ccc21)c1cccc(NS(C)(=O)=O)c1 [Example 779]
> 6.30,> 6.00,O=c1[nH]c2ccc(/C=C3\c4ccccc4CCc4cccc(Cl)c43)cc2[nH]1 [Example 466]
> 6.30,> 6.30,"Oc1cccc(C=C2c3ccccc3CCc3c(Cl)cccc32)c1 [211(a), 3-(1-Chloro-10,11-dihydro-dibenzo[a,d]cyclohepten-5-ylidenemethyl)-phenol]"
> 6.30,> 5.00,CN(C)c1ccc2c(c1)CCc1ccccc1C2=Cc1cccc(NS(C)(=O)=O)c1 [Example 402]
